This note sets out measurements from US11964996B2, “2-alkynylmannose derivative and application thereof” (priority 2020, dated 2024).

This test concerns the target T1, FimH proteins (Escherichia coli, UniProt Q1R2J4).
T1 construct: endogenous in cells; host or cells: UPEC strain UTI89 (whole bacteria)
As to the kind of experiment: hemagglutination inhibition (HAI) assay: UPEC UTI89 with guinea pig red blood cells. Particulars: read-out: HAI EC90 (minimum concentration for inhibiting hemagglutination). Format: cell-based, uropathogenic Escherichia coli (UPEC) UTI89. How it is done:
In the present example, the mannose derivatives A1 to A107 that were prepared in Examples 1 to 12 were analyzed in hemagglutination inhibition (HAI) assays to determine inhibitory effects of the compounds on the function/activity of FimH proteins.
1. Preparation of a guinea pig red blood cell solution: an adult guinea pig was anesthetized with ethyl ether, blood was sampled from the heart, placed in an EDTA blood collection tube, and centrifuged at 2,000 rpm for 5 min, serum was removed, the sample was transferred in a centrifuge tube (15 mL), sterilized PBS was added, the sample was centrifuged at 1,500 rpm for 10 min, a supernatant was removed, the sample was transferred in a centrifuge tube (50 mL), PBS was added, the sample was centrifuged at 1,500 rpm for 10 min and repeatedly washed twice, and red blood cells were slightly aspirated into a new centrifuge tube (50 mL) to obtain a 5% guinea pig red blood cell solution.
2. Preparation of a bacteria solution: a UPEC cell line UTI89 was inoculated on a medium plate and cultured in an incubator at 37° C. overnight. Single colonies were picked and inoculated in an LB medium in a sterilized conical flask, and cultured at 37° C. and 170 r/min overnight. When an OD value at 540 nm was about 0.8 on a microplate reader, the bacterial concentration was about 10^8-10^9 cfu/mL, the bacteria solution was centrifuged at 2,000 rpm for 10 min, a supernatant was removed, and 1 mL of bacteria solution was prepared into 0.1 mL of PBS bacteria solution. […] The bacteria and the medium were uniformly mixed by shaking, and reacted in an incubator at 25° C. for about 20-40 min. When the plate was read, the wells in which complete agglutination occurred were used as 4HAU for the hemagglutination titer of the bacteria. For example, if the endpoint titer of hemagglutination is 1:256, the dilution multiple of the 4HAU antigen is 1:64 (256 divided by 4). Bacteria solutions at corresponding concentrations were prepared according to the experimental results.
3. Activity assay: a compound to be tested or a standard product was placed in a 96-well microtest plate, 50 μL of drug at an initial concentration of 200 μM was placed in the first well, and from the second well, 25 μL of PBS was added to each well to dilute the drug in proportion. The drug and the medium in the first well were mixed, 25 μL of mixed drug solution was placed in the second well, the drug solution was diluted in sequence to the last well, and 25 μL of drug solution was removed. 25 μL of bacteria solution was placed in each well of the culture plate containing the diluted drug, and cultured at 37° C. for 40 min. 25 μL of 5% guinea pig red blood cell suspension was placed in each well, and slightly uniformly mixed with the drug, and the plate was placed at 4° C. for about 1 h. When results were determined, the plate was tilted 60°, and whether the red blood cells flowed like teardrops was observed.
Mannosyl proteins are expressed on the surface of red blood cells in a guinea pig, which can bind to FimH proteins of UTI89 to cause hemagglutination. It can be observed with the naked eyes that the red blood cells form film-like agglutination at the bottom of the well, and loose red dots can be seen in the center. The FimH protein inhibitor competitively binds to FimH proteins to inhibit hemagglutination. It can be observed with the naked eyes that all the red blood cells sink and concentrate at the bottom of the well to form dense dots. The minimum concentration for inhibiting hemagglutination is expressed as an EC90 value of a compound. The final concentration of the compound in the first well is 66700 nM, the concentration in the second well is half that in the first well, the concentration in the third well is half that in the second well, and so on. […] A low EC90 value indicates high activity of a compound.

SMILES strings stand for the structures. Where only a bound is given, the exact number is not on record here.

Regarding `OC[C@H]1O[C@H](C#Cc2cnn([C@H]3CCOC3)c2)[C@](O)(C#Cc2ccccc2)[C@@H](O)[C@@H]1O` [Compound A49], the EC90 turned out to be 16 nM. Turning to `OC[C@H]1O[C@H](C#Cc2cnn([C@@H]3CCOC3)c2)[C@](O)(C#Cc2ccccc2)[C@@H](O)[C@@H]1O` [Compound A50], the EC90 was found to be 130 nM. With `OC[C@H]1O[C@H](C#Cc2cnn(C3CCCOC3)c2)[C@](O)(C#Cc2ccccc2)[C@@H](O)[C@@H]1O` (stereo partly shown) [Compound A51], the EC90 stood at 16 nM.

As to `OC[C@H]1O[C@H](C#Cc2cnn(C3CCOCC3)c2)[C@](O)(C#Cc2ccccc2)[C@@H](O)[C@@H]1O` [Compound A52], the EC90 amounted to 4 nM.

In the case of `OC[C@H]1O[C@H](C#Cc2cnn(C3CCC(F)(F)CC3)c2)[C@](O)(C#Cc2ccccc2)[C@@H](O)[C@@H]1O` [Compound A53], the EC90 came to 8 nM.

For `O=c1ccc(C#C[C@H]2O[C@H](CO)[C@@H](O)[C@H](O)[C@@]2(O)C#Cc2ccccc2)cn1C1CCCCC1` [Compound A54], the EC90 was 4 nM. In the case of `O=c1ccc(C#C[C@H]2O[C@H](CO)[C@@H](O)[C@H](O)[C@@]2(O)C#Cc2ccccc2)cn1-c1ccccc1` [Compound A55], the EC90 stood at 64 nM.

With `CCC(C)O[C@H]1O[C@H](CO)[C@@H](O)[C@H](O)[C@@]1(O)C#Cc1ccc(F)cc1` (stereo partly shown) [Compound A56], the EC90 worked out at 520 nM. The same measure for `CCC(C)O[C@H]1O[C@H](CO)[C@@H](O)[C@H](O)[C@@]1(O)C#Cc1cccc(Cl)c1` (stereo partly shown) [Compound A57]: 260 nM. For `CCC(C)O[C@H]1O[C@H](CO)[C@@H](O)[C@H](O)[C@@]1(O)C#Cc1cccc(OC)c1` (stereo partly shown) [Compound A58] the value was 520 nM; for `OC[C@H]1O[C@H](C#Cc2cnn(C3CCCCC3)c2)[C@](O)(C#CC2CC2)[C@@H](O)[C@@H]1O` [Compound A59], 4 nM; for `CO[C@H]1CC[C@H](n2cc(C#C[C@H]3O[C@H](CO)[C@@H](O)[C@H](O)[C@@]3(O)C#Cc3ccccc3)cn2)CC1` [Compound A60], 2 nM.

`OC[C@H]1O[C@H](C#Cc2cnn([C@@H]3C[C@H]4C[C@H]4C3)c2)[C@](O)(C#Cc2ccccc2)[C@@H](O)[C@@H]1O` [Compound A61]: the EC90 came to 8 nM. In the case of `OC[C@H]1O[C@H](C#Cc2cnn([C@H]3C[C@H]4C[C@H]4C3)c2)[C@](O)(C#Cc2ccccc2)[C@@H](O)[C@@H]1O` [Compound A62], the EC90 was 0.5 nM. For `CC(n1cc(C#C[C@H]2O[C@H](CO)[C@@H](O)[C@H](O)[C@@]2(O)C#Cc2ccccc2)cn1)C(F)(F)F` (stereo partly shown) [Compound A63] the value was 16 nM; for `OC[C@H]1O[C@H](C#Cc2cnn(-c3ncccc3Cl)c2)[C@](O)(C#Cc2ccccc2)[C@@H](O)[C@@H]1O` [Compound A64], 4 nM. As to `N#Cc1ccccc1-n1cc(C#C[C@H]2O[C@H](CO)[C@@H](O)[C@H](O)[C@@]2(O)C#Cc2ccccc2)cn1` [Compound A65], the EC90 was found to be 64 nM. For `OC[C@H]1O[C@H](C#Cc2cnn(-c3cccc(Cl)c3)c2)[C@](O)(C#Cc2ccccc2)[C@@H](O)[C@@H]1O` [Compound A66] the value was 0.13 nM; for `OC[C@H]1O[C@H](C#Cc2cnn(-c3ccc(Cl)cc3)c2)[C@](O)(C#Cc2ccccc2)[C@@H](O)[C@@H]1O` [Compound A67], 0.13 nM; for `OC[C@H]1O[C@H](C#Cc2cnn(-c3ccc(F)cc3)c2)[C@](O)(C#Cc2ccccc2)[C@@H](O)[C@@H]1O` [Compound A68], 8 nM. In the case of `OC[C@H]1O[C@H](C#Cc2cnn(C3CCCCC3O)c2)[C@](O)(C#Cc2ccccc2)[C@@H](O)[C@@H]1O` (stereo partly shown) [Compound A69], the EC90 was 16 nM.

`OC[C@H]1O[C@H](C#Cc2cnn(-c3ccccc3Cl)c2)[C@](O)(C#CC2CC2)[C@@H](O)[C@@H]1O` [Compound A70]: the EC90 worked out at 8 nM. The same measure for `COc1cnc(-n2cc(C#C[C@H]3O[C@H](CO)[C@@H](O)[C@H](O)[C@@]3(O)C#Cc3cnn(C)c3)cn2)nc1` [Compound A71]: 8 nM; for `OC[C@H]1O[C@H](C#Cc2cnn(-c3ccc(Cl)cc3)c2)[C@](O)(C#CC2CC2)[C@@H](O)[C@@H]1O` [Compound A72]: under 0.1 nM; for `OC[C@H]1O[C@H](C#Cc2cnn(-c3ccc(Cl)cc3)c2)[C@](O)(C#Cc2cccnc2)[C@@H](O)[C@@H]1O` [Compound A73]: 8 nM. The same measure for `Cn1cc(C#C[C@@]2(O)[C@@H](C#Cc3cnn(-c4ccc(Cl)cc4)c3)O[C@H](CO)[C@@H](O)[C@@H]2O)cn1` [Compound A74]: 0.13 nM; for `CO[C@H]1CC[C@H](n2cc(C#C[C@H]3O[C@H](CO)[C@@H](O)[C@H](O)[C@@]3(O)C#Cc3cc(F)cc(F)c3)cn2)CC1` [Compound A75]: 8 nM.

As to `OC[C@H]1O[C@H](C#Cc2cnn([C@H]3CC[C@H](O)CC3)c2)[C@](O)(C#Cc2ccc(F)cc2)[C@@H](O)[C@@H]1O` [Compound A76], the EC90 stood at 4 nM. For `OC[C@H]1O[C@H](C#Cc2cnn([C@H]3CC[C@H](O)CC3)c2)[C@](O)(C#Cc2ccccc2)[C@@H](O)[C@@H]1O` [Compound A77] the value was 2 nM; for `CCn1cc(C#C[C@@]2(O)[C@@H](C#Cc3cnn(-c4ccc(Cl)cc4)c3)O[C@H](CO)[C@@H](O)[C@@H]2O)cn1` [Compound A78], under 0.1 nM; for `Cn1cc(C#C[C@@]2(O)[C@@H](C#Cc3cnn(-c4cnn(C)c4)c3)O[C@H](CO)[C@@H](O)[C@@H]2O)cn1` [Compound A79], 16 nM. On to `CCC#C[C@@]1(O)[C@@H](C#Cc2cnn(-c3ccc(Cl)cc3)c2)O[C@H](CO)[C@@H](O)[C@@H]1O` [Compound A80], for which the EC90 came out at 2 nM. For `COc1ccc(-n2cc(C#C[C@H]3O[C@H](CO)[C@@H](O)[C@H](O)[C@@]3(O)C#Cc3ccccc3)cn2)cc1` [Compound A81] the value was under 0.1 nM; for `COc1ccc(-n2cc(C#C[C@H]3O[C@H](CO)[C@@H](O)[C@H](O)[C@@]3(O)C#Cc3cnn(C)c3)cn2)cc1` [Compound A82], under 0.1 nM; for `Cn1cc(C#C[C@@]2(O)[C@@H](C#Cc3cnn(C4CCC(F)(F)CC4)c3)O[C@H](CO)[C@@H](O)[C@@H]2O)cn1` [Compound A83], 2 nM. For `Cn1cc(C#C[C@@]2(O)[C@@H](C#Cc3cnn(-c4ccccc4)c3)O[C@H](CO)[C@@H](O)[C@@H]2O)cn1` [Compound A84] the value was 0.25 nM. The same measure for `Cn1cc(C#C[C@@]2(O)[C@@H](C#Cc3cnn(C4CCCCC4)c3)O[C@H](CO)[C@@H](O)[C@@H]2O)cn1` [Compound A85]: 2 nM; for `CCC#C[C@@]1(O)[C@@H](C#Cc2cnn(-c3ccccc3)c2)O[C@H](CO)[C@@H](O)[C@@H]1O` [Compound A87]: 32 nM; for `OC[C@H]1O[C@H](C#Cc2cnn(-c3ccccc3)c2)[C@](O)(C#CC2CC2)[C@@H](O)[C@@H]1O` [Compound A88]: 4 nM.

On to `O=S(=O)(O)c1cccc(C#C[C@@]2(O)[C@@H](C#Cc3cnn(-c4ccc(OC[C@H](O)CO)cc4)c3)O[C@H](CO)[C@@H](O)[C@@H]2O)c1` [Compound A89], for which the EC90 stood at 16 nM. The same measure for `[2H]C([2H])([2H])Oc1ccc(-n2cc(C#C[C@H]3O[C@H](CO)[C@@H](O)[C@H](O)[C@@]3(O)C#CC3CC3)cn2)cc1` [Compound A90]: under 0.1 nM; for `OC[C@@H](O)COc1ccc(-n2cc(C#C[C@H]3O[C@H](CO)[C@@H](O)[C@H](O)[C@@]3(O)C#Cc3cnn(C[C@H](O)CO)c3)cn2)cc1` [Compound A91]: 8 nM; for `OC[C@H]1O[C@H](C#Cc2cnn(-c3cccc(Cl)c3)c2)[C@](O)(C#CC2CC2)[C@@H](O)[C@@H]1O` [Compound A92]: 2 nM.
